Columns and labels:
human recombinant PDE2A1 = target: T1, human recombinant PDE2A1 (Homo sapiens, UniProt O00408); assay: AlphaScreen cGMP PDE assay, PDE2; assay type: biochemical; details: n = 3
T1 construct: FLAG (N); purchased BPS Bioscience 0021
Description: (§1) Phosphodiesterase inhibitory activity of the test items prepared according to the procedure in example 2 and outlined in table 2 were measured using the AlphaScreen® assay technology. Materials and methods were according to technical instructions given by Perkin Elmer (www.perkinelmer.com; “Application note “AlphaScreen cGMP Phosphodiesterase Assay Using AlphaScreen cGMP Supplement with Anti-cGMP Antibody”; Authors: Martin Boissonneault, Christian Fafard, Joe Trometer, Chantal Illy, Stéphane Parent, and Roger Bossé; PerkinElmer Life and Analytical Sciences, 710 Bridgeport Avenue, Shelton, Conn. 06484 USA).
(§2) The AlphaScreen cGMP PDE assay used PerkinElmer's AlphaScreen cGMP supplement with antibody (cat. no. 6760308M or 6760308R) which consists of a biotinylated cGMP derivative and an anti-cGMP antibody. The assay also requires the AlphaScreen Protein A detection kit (PerkinElmer cat. no. 6760617), composed of Protein A acceptor beads and Streptavidin donor beads. The human recombinant PDE5A (N-terminal GST, cat no 60050) and PDE2A1 (N-terminal FLAG tag, cat no 0021) were purchased from BPS Bioscience, San Diego, United States. […]
(§3) 1—Add 5 μL of inhibitor* * Please note that for compound screening purposes, adding […] of test compounds to 4.5 μL of cGMP substrate solution prepared in the PDE reaction Buffer is recommended. […] 2—Add 5 μL of PDE (5U per well) 3—Incubate 120 minutes at 23° C. for enzymatic cleavage of unlabeled cGMP 4—Add 5 μL of the AlphaScreen cGMP Supplement (1 nM final) 5—Add 10 μL Detection mix (anti-cGMP antibody/Streptavidin-Donor beads (20 μg/mL final)/Protein A-Acceptor beads (20 μg/mL final)) 6—Incubate the plate for 1 hour at room temperature in the dark and detect the AlphaScreen signal using the microplate analyzer PHERAstar reader.

human recombinant PDE5A = target: T2, human recombinant PDE5A (Homo sapiens, UniProt O76074); assay: AlphaScreen cGMP PDE assay, PDE5; assay type: biochemical; details: n = 3
T2 construct: GST (N); purchased BPS Bioscience 60050
Description: as §1, §2, §3

T1 sequence (O00408 1-920 isoform O00408-2): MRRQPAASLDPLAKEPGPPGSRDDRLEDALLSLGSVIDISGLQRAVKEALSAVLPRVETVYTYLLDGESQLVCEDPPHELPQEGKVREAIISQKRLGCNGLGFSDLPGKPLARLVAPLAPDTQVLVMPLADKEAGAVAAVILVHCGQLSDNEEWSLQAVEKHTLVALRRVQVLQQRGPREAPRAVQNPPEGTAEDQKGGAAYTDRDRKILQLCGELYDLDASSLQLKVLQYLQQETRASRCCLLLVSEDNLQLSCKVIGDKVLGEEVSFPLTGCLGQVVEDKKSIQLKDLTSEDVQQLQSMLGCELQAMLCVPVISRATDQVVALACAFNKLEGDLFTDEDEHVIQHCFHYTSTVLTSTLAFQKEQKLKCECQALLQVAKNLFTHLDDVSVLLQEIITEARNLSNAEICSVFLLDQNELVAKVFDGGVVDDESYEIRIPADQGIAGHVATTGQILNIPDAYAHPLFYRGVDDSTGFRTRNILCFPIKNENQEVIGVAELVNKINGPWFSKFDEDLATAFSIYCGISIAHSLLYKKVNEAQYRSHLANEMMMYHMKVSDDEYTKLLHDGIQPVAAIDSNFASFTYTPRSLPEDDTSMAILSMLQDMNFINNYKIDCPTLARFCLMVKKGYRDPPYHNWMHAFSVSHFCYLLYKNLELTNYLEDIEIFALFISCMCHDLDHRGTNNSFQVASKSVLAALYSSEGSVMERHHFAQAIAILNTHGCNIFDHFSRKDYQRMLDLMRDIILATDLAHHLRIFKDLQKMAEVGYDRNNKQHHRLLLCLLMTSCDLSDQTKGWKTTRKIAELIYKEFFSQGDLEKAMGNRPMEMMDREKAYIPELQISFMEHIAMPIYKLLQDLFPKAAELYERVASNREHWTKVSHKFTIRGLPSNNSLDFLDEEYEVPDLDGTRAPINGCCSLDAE

Row | % inhibition of PDE-2 (human recombinant PDE2A1; Reference at 10 μM) [%] | % inhibition of PDE-2 (human recombinant PDE2A1; reference at 1 μM) [%] | % inhibition of PDE-2 (human recombinant PDE2A1; reference at 5 μM) [%] | inhibition at 1 µM (human recombinant PDE5A; reference at 1 μM) [%] | inhibition at 5 µM (human recombinant PDE5A; reference at 5 μM) [%] | inhibition at 19 µM (human recombinant PDE5A; reference at 19 μM) [%] | Compound
1 | 98 | 33 | 73 |  |  |  | CCCCCCC(C(C)O)n1cnc2c(N)ncnc21.Cl (stereo not drawn) [EHNA]
2 |  |  |  | 57 | 81 | 88 | CCCOc1ccccc1-c1nc2nn[nH]c2c(=O)[nH]1 [Zaprinast]
